Measured values taken from patent US9393221B2, “Methods and compounds for reducing intracellular lipid storage” (THE GENERAL HOSPITAL CORPORATION, priority 2011, dated 2016).
Counter-ions that a name gives are not always drawn. Bridge positions count the residues as written; N and C are the ends. Square brackets hold non-standard residues; d marks the D form. Peptide text beside a SMILES is read from it. * marks the point of attachment. Ileψ(thiazoline)Cys = CC[C@H](C)[C@H](N)C1=N[C@H](C(=O)*)CS1; dOrn = NCCC[C@@H](N)C(=O)O

The molecules below were run on ATGL-KO iPSCs (assay: High throughput iPSC chemical screening, Oil Red O (ORO) lipid accumulation). Conditions: not given.
Format: cell-based, mouse
Throughout, for Z-score: test concentration or dose not given here.

Work on `CC(C)(C)CC(C)(C)c1ccc(OCCOCC[N+](C)(C)Cc2ccccc2)cc1` [Benzethonium chloride] yielded a Z-score of 8.105.

Same assay, conditions: glycolytic switch compounds

In order of rising “Rank in normalized ORO score from screen” value:
1. CCCCOC(=O)c1ccc(O)cc1 [Butylparaben]  23
2. OC(CCN1CCCCC1)(c1ccccc1)C1CC2C=CC1C2 (stereo not shown) [Biperiden hydrochloride]  135
3. CC(=O)Oc1ccc(C(c2ccc(OC(C)=O)cc2)c2ccccn2)cc1 [Bisacodyl]  791

Same assay, conditions: normalized ORO level vs DMSO-treated cells; compound present during 7 days differentiation, 96-well; negative = decrease in lipid accumulation

In order of rising Z-score:
1. CC(C)COCC(CN(Cc1ccccc1)c1ccccc1)N1CCCC1 (stereo not shown) [Bepridil hydrochloride]  −1.7961
2. CCCCOC(=O)c1ccc(O)cc1 [Butylparaben]  −1.7629
3. O=C(O)/C=C/c1ccc(O)c(O)c1 [Caffeic acid]  −1.7446
4. NS(=O)(=O)c1cc2c(cc1Cl)N=C(CSCc1ccccc1)NS2(=O)=O [Benzthiazide]  −1.594
5. C=C(C)[C@@H]1CC[C@]2(CO)CC[C@]3(C)[C@H](CC[C@@H]4[C@@]5(C)CC[C@H](O)C(C)(C)[C@@H]5CC[C@]43C)[C@@H]12 [Betulin]  −1.4148
6. CCCCNc1cc(C(=O)O)cc(S(N)(=O)=O)c1Oc1ccccc1 [Bumetanide]  −1.3983
7. OC(CCN1CCCCC1)(c1ccccc1)C1CC2C=CC1C2 (stereo not shown) [Biperiden hydrochloride]  −1.1752
8. CC1(C)S[C@@H]2[C@H](NC(=O)[C@H](NC(=O)N3CCNC3=O)c3ccccc3)C(=O)N2[C@H]1C(=O)O [Azlocillin sodium salt]  −1.1617
9. CC(Cc1cccc(C(F)(F)F)c1)NCCOC(=O)c1ccccc1 (stereo not shown) [Benfluorex hydrochloride]  −1.1069
10. NC(=NCc1ccccc1)NC(=O)c1nc(Cl)c(N)nc1N [Benzamil hydrochloride]  −1.083
11. CC[C@H](C)[C@H](N)C1=N[C@H](C(=O)N[C@@H](CC(C)C)C(=O)N[C@H](CCC(=O)O)C(=O)N[C@H](C(=O)N[C@H]2CCCCNC(=O)[C@H](CC(N)=O)NC(=O)[C@@H](CC(=O)O)NC(=O)[C@H](Cc3cnc[nH]3)NC(=O)[C@@H](Cc3ccccc3)NC(=O)[C@H]([C@@H](C)CC)NC(=O)[C@@H](CCCN)NC2=O)[C@@H](C)CC)CS1 [Bacitracin] ({Ileψ(thiazoline)Cys}-L[dE]IK[dOrn]I[dF]H[dD]N; lactam 4-C)  −1.0707
12. OC(c1ccccc1)(c1ccccc1)C1CCNCC1 [Azacyclonol]  −1.0159
13. CCCC(=O)Nc1ncnc2c1ncn2[C@@H]1O[C@@H]2COP(=O)(O)O[C@H]2[C@H]1OC(=O)CCC [Bucladesine sodium salt]  −0.9927
14. CCCCN(CCCC)CCCOC(=O)c1ccc(N)cc1 [Butacaine]  −0.9284
15. CC[C@H](CC[C@@H](C)[C@H]1CC[C@H]2[C@@H]3CC=C4C[C@@H](O)CC[C@]4(C)[C@H]3CC[C@]12C)C(C)C [Beta-sistosterol]  −0.8867
16. CN1CC[C@]23c4ccccc4N[C@H]1[C@]21CCN(C)[C@H]3Nc2ccccc21 [Calycanthine]  −0.8381
17. C/C(=C(\CCOP(=O)(O)O)SC(=O)c1ccccc1)N(C=O)Cc1cnc(C)nc1N [Benfotiamine]  −0.7979
18. CC1(C)S[C@@H]2[C@H](NC(=O)Cc3ccccc3)C(=O)N2[C@H]1C(=O)O [Benzylpenicillin sodium]  −0.794
19. COc1c(O)cc2c(c1O)[C@@H]1O[C@H](CO)[C@@H](O)[C@H](O)[C@H]1OC2=O [Bergenin monohydrate]  −0.7293
20. CCCC1C(=O)N2C(N(C)C)=Nc3ccc(C)cc3N2C1=O (stereo not shown) [Azapropazone]  −0.6493
21. O=C(CCCN1CCC(O)(c2ccc(Br)cc2)CC1)c1ccc(F)cc1 [Bromperidol]  −0.6428
22. COc1cc2c(cc1O)C[C@H]1c3c(cc(O)c(OC)c3-2)CCN1C [Boldine]  −0.6389
23. NC(CO)C(=O)NNCc1ccc(O)c(O)c1O (stereo not shown) [Benserazide hydrochloride]  −0.638
24. CC1=CC(=O)C2=C(C)C[C@H](O)[C@@H]3[C@H](OC(=O)[C@H]3C)[C@H]12 [Austricine]  −0.5795
25. CN1CCc2cc3c(cc2[C@H]1[C@@H]1OC(=O)c2c1ccc1c2OCO1)OCO3 [Bicuculline (+)]  −0.5556
26. C[N+](C)(CCOc1ccccc1)Cc1ccccc1.O=C([O-])c1cc2ccccc2cc1O [Bephenium hydroxynaphthoate]  −0.5444
27. CCN[C@H]1CN(CCCOC)S(=O)(=O)c2sc(S(N)(=O)=O)cc21 [Brinzolamide]  −0.419
28. Clc1ccc(CCC(Cn2ccnc2)Sc2c(Cl)cccc2Cl)cc1 (stereo not shown) [Butoconazole nitrate]  −0.4077
29. CC(C[N+](C)(C)C)OC(N)=O (stereo not shown) [Bethanechol chloride]  −0.3853
30. CCC1(C)CC(=O)NC(=O)C1 [Bemegride]  −0.3526
31. CCc1oc2ccccc2c1C(=O)c1cc(Br)c(O)c(Br)c1 [Benzbromarone]  −0.349
32. CN(C)CCCOc1nn(Cc2ccccc2)c2ccccc12 [Benzydamine hydrochloride]  −0.3467
33. CCC(=O)OCC(=O)[C@@]1(OC(=O)CC)[C@@H](C)C[C@H]2[C@@H]3CCC4=CC(=O)C=C[C@]4(C)[C@@]3(Cl)[C@@H](O)C[C@@]21C [Beclomethasone dipropionate]  −0.2791
34. O=C(CCCN1CCC(n2c(O)nc3ccccc32)CC1)c1ccc(F)cc1 [Benperidol]  −0.2696
35. CC(C)(Oc1ccc(CCNC(=O)c2ccc(Cl)cc2)cc1)C(=O)O [Bezafibrate]  −0.2571
36. Cc1n[nH]c(=O)[nH]c1=O [Azathymine, 6]  −0.2304
37. C[C@H]1C[C@H]2[C@@H]3CCC4=CC(=O)C=C[C@]4(C)[C@@]3(F)[C@@H](O)C[C@]2(C)[C@@]1(O)C(=O)CO [Betamethasone]  −0.1891
38. NCCc1cc[nH]n1 [Betazole hydrochloride]  −0.1702
39. O=C1CC2(CCCC2)CC(=O)N1CCCCN1CCN(c2ncccn2)CC1 [Buspirone hydrochloride]  −0.0845
40. COc1cc(OC)c(C(=O)CCCN2CCCC2)c(OC)c1 [Buflomedil hydrochloride]  −0.0451
41. CCCCN1CCCCC1C(=O)Nc1c(C)cccc1C (stereo not shown) [Bupivacaine hydrochloride]  0.0187
42. CC(C)NCC(O)COc1ccc(COCCOC(C)C)cc1 (stereo not shown) [Bisoprolol fumarate]  0.03425
43. CCCCNc1ccc(C(=O)OCCOCCOCCOCCOCCOCCOCCOCCOCCOC)cc1 [Benzonatate]  0.06563
44. CCOC(=O)OC(C)OC(=O)[C@@H]1N2C(=O)[C@@H](NC(=O)[C@H](N)c3ccccc3)[C@H]2SC1(C)C (stereo partly shown) [Bacampicillin hydrochloride]  0.09702
45. O=C(O)CCCC[C@@H]1SC[C@@H]2NC(=O)N[C@@H]21 [Biotin]  0.1016
46. C[N+]1(C)C[C@H](O)C[C@H]1C(=O)[O-] [Betonicine]  0.1235
47. C[C@H]1[C@H](NC(=O)/C(=N\OC(C)(C)C(=O)O)c2csc(N)n2)C(=O)N1S(=O)(=O)O [Aztreonam]  0.1728
48. CN(C)C(=O)Oc1cc(OC(=O)N(C)C)cc(C(O)CNC(C)(C)C)c1 (stereo not shown) [Bambuterol hydrochloride]  0.1858
49. CC1(C)S[C@@H]2[C@H](NC(=O)Cc3ccccc3)C(=O)N2[C@H]1C(=O)O.CC1(C)S[C@@H]2[C@H](NC(=O)Cc3ccccc3)C(=O)N2[C@H]1C(=O)O.c1ccc(CNCCNCc2ccccc2)cc1 [Benzathine benzylpenicillin]  0.238
50. C=C1CC[C@H](O)C/C1=C/C=C1\CCC[C@]2(C)[C@@H]([C@H](C)/C=C/[C@H](C)C(C)C)CC[C@@H]12 [Calciferol]  0.2582
51. CCCCOC(=O)c1ccc(N)cc1 [Butamben]  0.2903
52. C=C(C)[C@@H]1CC[C@]2(C(=O)O)CC[C@]3(C)[C@H](CC[C@@H]4[C@@]5(C)CC[C@H](O)C(C)(C)[C@@H]5CC[C@]43C)[C@@H]12 [Betulinic acid]  0.4119
53. CCCCOc1cc(C(=O)OCCN(CC)CC)ccc1N [Benoxinate hydrochloride]  0.4398
54. CC(=O)Oc1ccc(C(c2ccc(OC(C)=O)cc2)c2ccccn2)cc1 [Bisacodyl]  0.477
55. CCCCOc1ccc(CC(=O)NO)cc1 [Bufexamac]  0.678
56. CC(NC(C)(C)C)C(=O)c1cccc(Cl)c1 (stereo not shown) [Bupropion hydrochloride]  0.7193
57. CCN(CC)CCNC(=O)c1cc(Br)c(N)cc1OC [Bromopride]  0.9486
58. CCOC(=O)c1ccc(N)cc1 [Benzocaine]  1.149
59. COc1ccc(CC2c3cc(OC)c(OC)cc3CC[N+]2(C)CCC(=O)OCCCCCOC(=O)CC[N+]2(C)CCc3cc(OC)c(OC)cc3C2Cc2ccc(OC)c(OC)c2)cc1OC (stereo not shown) [Atracurium besylate]  1.182
60. CN1[C@@H]2CC[C@H]1C[C@@H](OC(=O)C(CO)c1ccccc1)C2 (stereo partly shown) [Atropine sulfate monohydrate]  1.183
61. CC(C)NCC(O)COc1ccc(CCOCC2CC2)cc1 (stereo not shown) [Betaxolol hydrochloride]  1.393
62. O=C(CCCN1CCN(c2ccccn2)CC1)c1ccc(F)cc1 [Azaperone]  1.543
63. CNCCc1ccccn1.CS(=O)(=O)O.CS(=O)(=O)O [Betahistine mesylate]  1.556
64. CN(C)CCC(c1ccc(Br)cc1)c1ccccn1 (stereo not shown) [Brompheniramine maleate]  1.885
65. CC[N+](C)(C)Cc1ccccc1Br [Bretylium tosylate]  1.9055
66. NS(=O)(=O)c1cc2c(cc1C(F)(F)F)NC(Cc1ccccc1)NS2(=O)=O (stereo not shown) [Bendroflumethiazide]  2.297
67. Nc1nc(O)c2[nH]nnc2n1 [Azaguanine-8]  2.948
68. COc1ccc2cc3[n+](cc2c1OC)CCc1cc2c(cc1-3)OCO2 [Berberine chloride]  12.68
69. Nc1ncn([C@@H]2O[C@H](CO)[C@@H](O)[C@H]2O)c(=O)n1 [Azacytidine-5]  16.1728
70. Cn1cnc([N+](=O)[O-])c1Sc1ncnc2nc[nH]c12 [Azathioprine]  17.2224
71. CCCC1O[C@@H]2C[C@H]3[C@@H]4CCC5=CC(=O)C=C[C@]5(C)[C@H]4[C@@H](O)C[C@]3(C)[C@]2(C(=O)CO)O1 (stereo partly shown) [Budesonide]  19.1411
72. CC[C@@]1(O)C(=O)OCc2c1cc1n(c2=O)Cc2cc3ccccc3nc2-1 [Camptothecine (S,+)]  21.8871
